Test results from patent USRE37999E1, “20-(B)-20,25-dihydroperoxy-3β-hydroxycholest-5-ene and 20-(S)-20,25-dihydroperoxy-3β-hydroxycholest-5-ene” (Iowa State University Research Foundation, Inc., priority 1988, dated 2003).
Several values for one entry are separate records, joined by “and”; a condition that tells them apart may be missing. Identical values can stand only once.

Assays:
calmodulin = calmodulin (Homo sapiens, UniProt P0DP23); assay: Inhibition of calmodulin activity (method of Leung et al. 1984); format: biochemical
Protocol: The inhibition of calmodulin activity by A and B were measured using the method described by Leung et al. (1984) and the results are shown in Table 1.
In still another experiment, inhibition of calmodulin by the same cholesterol hydroperoxides was tested. The calmodulin inhibition was assayed as described by Leung et al. (J. Biol. Chem., 259:2742-2747, 1984).

[1] = system: mouse peritoneal macrophages; assay: Esterification of cholesterol in mouse peritoneal macrophages (3H-oleate incorporation into cholesteryl ester); format: cell-based; conditions: 15 min preincubation
Protocol: The effects of cholesterol hydroperoxides on the esterification of cholesterol in mouse peritoneal macrophages was tested as follows:
Monolayers of mouse peritoneal macrophages were pretreated with various concentration of ⟦deleted by reissue: 20-(S)-hydroperoxy-cholest-5-ene-3β,25-diol hydroxycholesterol (A) or 20-(R)-hydroperoxycholest-5-ene-3β,25 diol (B) ⟧ 20-(S)-20,25-dihydroperoxy-3β-hydroxycholest-5-ene-(A) or 20-(R)-20,25-dihydroperoxy-3β-hydroxycholest-5-ene (B) at 37° C. After 15 min preincubation, medium M199 providing 2.5% fetal calf serum, acetyl-LDL (25 μg protein/ml) and ^3H-oleate (0.25 μCi/ml) was added to the culture dishes. After 6 hr of incubation with 5% CO2 at 37° C. the cellular lipids were extracted. This layer chromatography was used to separate cholesteryl ester from other lipid classes before the radioactivity was determined. The activities reported have been corrected for losses during chromatography and elution of the thin-layer plates.

[2] = system: mouse peritoneal macrophages; assay: Time course of incorporation of 3H-oleate into cholesterol esters by mouse peritoneal macrophages; format: cell-based; conditions: for inhibition of 3H-oleate incorporation into cholesterol esters (in words): 50 μM compound A or 25 μM compound B
Protocol: In a further experiment, the time course of incorporation of ^3H-oleate into the same cholesterol esters by mouse peritoneal macrophages was studied. Mouse peritoneal macrophages were gorwn in M199 medium containing 2.5% fetal calf serum and acetyl-LDL (25 μg protein/ml) for 18 hr at 37° C. The medium was then replaced by M199 containing 2.5% fetal calf serum; ^3H-oleate with 50 μM compound A or 25 μM compound B or no hydroperoxide. At the time intervals indicated, the medium was aspirated and the cellular lipid was extracted and analyzed by thin-layer chromatography.

[3] = system: acyl-Coenzyme-A:cholesterol acyltransferase (ACAT); assay: Inhibition of ACAT in mouse liver microsomes (14C-oleoyl-Coenzyme A); format: biochemical; conditions: 15 min pretreatment
Protocol: In another experiment, the inhibition of ⟦deleted by reissue: acrylCoenzyme-A:cholesterol ⟧ acyl-Coenzyme-A:cholesterol acyltransferase (ACAT) by cholesterol hydroperoxides, compounds A and B was used. Mouse liver microsomes (140 μg protein/assay) were treated with various concentrations of compounds A and B for 15 min prior to starting the assay by the addition of ^14C-oleoyl-Coenzyme A (41 μM, 0.068 μCi/assay). The reaction was carried on at 37° C. for exactly 5 min. then terminated by the addition of chloroform and methanol. The cellular lipids were extracted and separated by thin-layer chromatography.

[4] = system: rabbits fed an atherogenic diet; conditions: cited from earlier work
[5] = Table 1, Control + EDTA, amount not given
[6] = Table 9, EGTA, amount not given
[7] = 0.01 μg compound preincubated with 0.3 units calmodulin, assay 30 C, 30 min
[8] = 0.1 μg compound preincubated with 0.3 units calmodulin, assay 30 C, 30 min
[9] = 1 μg compound preincubated with 0.3 units calmodulin, assay 30 C, 30 min
[10] = 2.5 μM hydroperoxide, 6 hr incubation with acetyl-LDL and 3H-oleate
[11] = 5 μM hydroperoxide, 6 hr incubation
[12] = 10 μM hydroperoxide, 6 hr incubation
[13] = 25 μM hydroperoxide, 6 hr incubation
[14] = 50 μM hydroperoxide, 6 hr incubation
[15] = 75 μM hydroperoxide, 6 hr incubation
[16] = 100 μM hydroperoxide, 6 hr incubation
[17] = 2.5 μM, 5 min reaction at 37° C

Structure (SMILES) | % inhibition (calmodulin; [7]) | nmole P produced^i (calmodulin; [7]) | % inhibition (calmodulin; [8]) | nmole P produced^i (calmodulin; [8]) | % inhibition (calmodulin; [9]) | nmole P produced^i (calmodulin; [9]) | % inhibition (calmodulin; Table 9, 0.1 μg) | nmoles phosphate produced (calmodulin; Table 9, 0.1 μg) | % inhibition (calmodulin; Table 9, 1 μg) | nmoles phosphate produced (calmodulin; Table 9, 1 μg) | Counts per min 3H incorporated into cholesteryl ester [1, 10] | Counts per min 3H incorporated into cholesteryl ester [1, 11] | Counts per min 3H incorporated into cholesteryl ester [1, 12] | Counts per min 3H incorporated into cholesteryl ester [1, 13] | Counts per min 3H incorporated into cholesteryl ester [1, 14] | Counts per min 3H incorporated into cholesteryl ester [1, 15] | Counts per min 3H incorporated into cholesteryl ester [1, 16] | inhibition of 3H-oleate incorporation into cholesterol esters (in words) ([2]; 5 min) | Counts per minute in cholesterol esters [3, 17] | Counts per minute in cholesterol esters ([3]; 5 μM, 5 min reaction) | further results
O=C(O)CN(CCN(CC(=O)O)CC(=O)O)CC(=O)O [EDTA, reference compound] |  |  |  |  |  |  |  |  |  |  |  |  |  |  |  |  |  |  |  |  | % inhibition (calmodulin; [5]): 100%; nmole P produced^i (calmodulin; [5]): 10.7 nmol
O=C(O)CN(CCOCCOCCN(CC(=O)O)CC(=O)O)CC(=O)O [EGTA, reference compound] |  |  |  |  |  |  |  |  |  |  |  |  |  |  |  |  |  |  |  |  | % inhibition (calmodulin; [6]): 100%; nmoles phosphate produced (calmodulin; [6]): 10.7 nmol
CC(C)(CCC[C@@](C)(OO)[C@H]1CC[C@H]2[C@@H]3CC=C4C[C@@H](O)CC[C@]4(C)[C@H]3CC[C@@]21C)OO [Compound B, 20-(R)-20,25-dihydroperoxy-3β-hydroxycholest-5-ene] | 4% | 26.9 nmol | 61% | 17.3 nmol | 81% | 13.8 nmol | 61% | 17.3 nmol | 81% | 13.8 nmol | 41574 Counts per min and 34918 Counts per min | 32751 Counts per min | 25140 Counts per min and 16252 Counts per min | 7752 Counts per min and 6232 Counts per min | 4073 Counts per min | 3177 Counts per min and 3385 Counts per min | 4427 Counts per min and 2401 Counts per min | apparent at the shortest time samples | 4557 Counts per minute and 3518 Counts per minute | 1786 Counts per minute and 2336 Counts per minute | % inhibition (calmodulin; Table 9, 0.001 μg): 4%; nmoles phosphate produced (calmodulin; Table 9, 0.001 μg): 26.9 nmol; Counts per minute in cholesterol ester ([2]; 25 μM compound B, 5 min): 2218 Counts per minute and 1256 Counts per minute; Counts per minute in cholesterol ester ([2]; 25 μM compound B, 10 min): 2560 Counts per minute and 2019 Counts per minute; Counts per minute in cholesterol ester ([2]; 25 μM compound B, 20 min): 3245 Counts per minute and 4788 Counts per minute; Counts per minute in cholesterol ester ([2]; 25 μM compound B, 30 min): 3202 Counts per minute and 2943 Counts per minute; Counts per minute in cholesterol ester ([2]; 25 μM compound B, 60 min): 5054 Counts per minute and 7341 Counts per minute; Counts per minute in cholesterol ester ([2]; 25 μM compound B, 120 min): 7534 Counts per minute and 9160 Counts per minute; Counts per minute in cholesterol ester ([2]; 25 μM compound B, 240 min): 18532 Counts per minute and 15819 Counts per minute; Counts per minute in cholesterol esters ([3]; 10 μM, 5 min reaction): 2499 Counts per minute and 1896 Counts per minute; Counts per minute in cholesterol esters ([3]; 16.7 μM, 5 min reaction): 920 Counts per minute and 964 Counts per minute; Counts per minute in cholesterol esters ([3]; 25 μM, 5 min reaction): 500 Counts per minute and 720 Counts per minute; Counts per minute in cholesterol esters ([3]; 33.3 μM, 5 min reaction): 429 Counts per minute and 563 Counts per minute; Counts per minute in cholesterol esters ([3]; 50 μM, 5 min reaction): 315 Counts per minute and 294 Counts per minute; Counts per minute in cholesterol esters ([3]; 100 μM, 5 min reaction): 131 Counts per minute and 244 Counts per minute
CN(C)CCCN1c2ccccc2Sc2ccc(Cl)cc21 [chlorpromazine] |  |  |  |  |  |  |  |  |  |  |  |  |  |  |  |  |  |  |  |  | blood cholesterol [4]: without lowering of blood cholesterol; development of atherosclerotic lesions [4]: reduced the development of such lesions
CC(C)(CCC[C@](C)(OO)[C@H]1CC[C@H]2[C@@H]3CC=C4C[C@@H](O)CC[C@]4(C)[C@H]3CC[C@@]21C)OO [Compound A, 20-(S)-20,25-dihydroperoxy-3β-hydroxycholest-5-ene] | 28% | 22.9 nmol | 68% | 16.1 nmol | 92% | 12.1 nmol | 68% | 16.1 nmol | 92% | 12.1 nmol | 55816 Counts per min and 47673 Counts per min | 59136 Counts per min | 33700 Counts per min and 29618 Counts per min | 14510 Counts per min and 17621 Counts per min | 6059 Counts per min | 5074 Counts per min and 5047 Counts per min | 2830 Counts per min and 3970 Counts per min | apparent at the shortest time samples | 4702 Counts per minute and 4651 Counts per minute | 4109 Counts per minute and 3420 Counts per minute | % inhibition (calmodulin; Table 9, 0.01 μg): 28%; nmoles phosphate produced (calmodulin; Table 9, 0.01 μg): 22.9 nmol; Counts per minute in cholesterol ester ([2]; 50 μM compound A, 5 min): 2627 Counts per minute and 1994 Counts per minute; Counts per minute in cholesterol ester ([2]; 50 μM compound A, 10 min): 2462 Counts per minute and 3092 Counts per minute; Counts per minute in cholesterol ester ([2]; 50 μM compound A, 20 min): 5223 Counts per minute and 6049 Counts per minute; Counts per minute in cholesterol ester ([2]; 50 μM compound A, 30 min): 4007 Counts per minute and 2937 Counts per minute; Counts per minute in cholesterol ester ([2]; 50 μM compound A, 60 min): 4088 Counts per minute and 5295 Counts per minute; Counts per minute in cholesterol ester ([2]; 50 μM compound A, 120 min): 7269 Counts per minute and 10036 Counts per minute; Counts per minute in cholesterol ester ([2]; 50 μM compound A, 240 min): 19627 Counts per minute and 17564 Counts per minute; Counts per minute in cholesterol esters ([3]; 10 μM, 5 min reaction): 3033 Counts per minute and 5422 Counts per minute; Counts per minute in cholesterol esters ([3]; 16.7 μM, 5 min reaction): 1643 Counts per minute and 1206 Counts per minute; Counts per minute in cholesterol esters ([3]; 20 μM, 5 min reaction): 1652 Counts per minute and 1708 Counts per minute; Counts per minute in cholesterol esters ([3]; 25 μM, 5 min reaction): 1121 Counts per minute and 652 Counts per minute; Counts per minute in cholesterol esters ([3]; 33.3 μM, 5 min reaction): 841 Counts per minute and 1141 Counts per minute; Counts per minute in cholesterol esters ([3]; 50 μM, 5 min reaction): 632 Counts per minute and 573 Counts per minute; Counts per minute in cholesterol esters ([3]; 100 μM, 5 min reaction): 304 Counts per minute and 297 Counts per minute
